The source of these data is publication PMC5225203, “Multiparameter toxicity assessment of novel DOPO-derived organophosphorus flame retardants” (Archives of Toxicology, 2016).

The subject of series [1] is fully differentiated LUHMES cells. Description: Toxicity in mature central nervous system neurons (neurite mass, viability). The series is classed as cell-based, human. The following applies: 48 h; for influence on neurites / viability: concentrations as high as 100 µM; for concentration evoking degeneration of neurites: day 6–8, all assays. How it is done: LUHMES cells are conditionally immortalized human fetal ventral mesencephalic neuronal precursor cells that were obtained by clonal selection. Differentiated LUHMES cells show a clear dopaminergic phenotype, which was described in detail previously (Schildknecht et al. [2009]; Scholz et al. [2011]). Cells were propagated in advanced DMEM/F12 (Gibco/Invitrogen, Darmstadt, Germany) with 1 × N2 supplement (Invitrogen), 2 mM L-glutamine (Gibco), and 40 ng/mL recombinant bFGF (R&D Systems, Minneapolis, MN, USA). The differentiation process was initiated by adding differentiation medium consisting of advanced DMEM/F12, 1 × N2 supplement, 2 mM L-glutamine, 1 mM dibutyryl cAMP (Sigma), 1 µg/mL tetracycline (Sigma), and 2 ng/mL recombinant human GDNF (R + D Systems). After 2 days, cells were trypsinized, collected in advanced DMEM/F12 medium, and seeded onto 24-well plates at a density of 160,000 cells/cm^2. The differentiation process was continued for 4 days. Fully differentiated LUHMES cells were treated with the tested flame retardants for 48 h from day 6 to 8 of differentiation. For visualization of morphology, cells were fixed with 4 % paraformaldehyde for 20 min at room temperature, permeabilized with 0.2 % Triton X-100, washed with PBS, blocked with 1 % BSA (Calbiochem, San Diego, CA, USA) in PBS for 1 h, and stained with a polyclonal anti-β-III-tubulin antibody (Sigma) in 1 % BSA/PBS at 4 °C overnight. After washing, secondary antibodies (anti-mouse-IgG, Alexa 488, Molecular Probes; 1:1000) in 1 % BSA/PBS were added for 1 h, after which nuclei were stained with Hoechst dye H-33342 (1 µg/mL) for 20 min. For visualization, an Olympus IX 81 microscope (Hamburg, Germany) equipped with an F-view CCD camera was used. For quantitative evaluation of the neurite area, β-III-tubulin-stained cells were analyzed using an automated microplate-reading microscope (Array-Scan II® HCS Reader, Cellomics, Pittsburgh, PA, USA) equipped with a Hamamatsu ORCA-ER camera (1024 × 1024 resolution; run at 2 × 2 binning). Nuclei were identified according to their intensity, size, area, and shape. A virtual area corresponding to the cell soma was defined around each nucleus. The total β-III-tubulin pixel area per field minus the soma areas in that field was defined as neurite mass.
[% of total activity ± SD]
[% of total activity± SD]
Suppl. Fig. 7. Toxicity of flame retar dants in central human neurons. Mature human dopaminergic neurons (LUHMES) were treated w ith the different flame retardants in the concentrations as indicated for 48 h from day 6 to day 8 of differentiation. a Cell viability was determined by the resazurin reduction and by the lact ate dehydrogenase release a ssays. b Intracellular levels of ATP and of reduced glutathione (GSH) were measured in parallel.

Series [2] relates to human neural crest cells. Description: Neural crest cell (NCC) migration assay. The series is classed as cell-based. Conditions: for cell migration / cell viability / concentration range in which migration was far more affected than cell viability: NCC, 24 h. The protocol:
Human embryogenic stem cells (H9 hESC line; Wisconsin International Stem Cell Bank, Madison, WI, USA) were plated on a confluent layer of mitomycin C-treated murine bone marrow-derived stromal MS5 cells and differentiated as previously described (Lee et al. [2010]; Zimmer et al. [2012]). After 21 days, rosettes were picked and plated onto poly-L-ornithine/laminin/fibronectin-coated plates in N2 medium. After 7 days, cells were FACS-sorted for positive expression of the neural crest marker human natural killer-1 (HNK-1) and expanded in N2 medium supplemented with epidermal growth factor (EGF, 20 ng/mL) and fibroblast growth factor (FGF2, 20 ng/mL). For expansion, the cells were passaged every 6 days using accutase (PAA, Pasching, Austria) to detach the cells. After 30 days of expansion, the cells were cryopreserved in 90 % fetal bovine serum, 10 % DMSO. For the analysis of neural crest cell migration, silicone stoppers (Platypus Technologies, Madison, WI, USA) were inserted in a 96-well plate coated with poly-L-ornithine/laminin/fibronectin. Freshly thawed NCCs were seeded at a density of 100,000 cells/cm^2 in N2 medium containing EGF and FGF2 and allowed to attach for 1 day. Stoppers were removed, and the cells were allowed to migrate into the center of the well. Compounds tested in this study were diluted from a 10 mM stock in DMSO and were applied for 24 h. For single cell detection, cells were stained with H-33342 (1 µg/mL) and calcein-AM (0.5 µM) and imaged using a high content imaging microscope (Cellomics ArrayScanVTI, Thermo Fischer). Viability was assessed by counting the number of H-33342 and calcein double-positive cells outside the migration zone. Migration was detected by acquisition of the number of H-33342 and calcein double-positive cells in the migration area.

For series [3], the system named is differentiated LUHMES cells. The series is classed as cell-based, human. The following applies: at high concentrations, correlated with neurite degeneration. The protocol:
Suppl. Fig. 10. Migration of mitochondria in neurites. Mitochondrial migration was detected in fully differentiated (day 6 of differentiation, DoD6) mixed LUHMES cultures consisting of 3% eGFP/mito-tRFP-overexpressing LUHMES in 97% unlabeled LUHMES in order to allow tracking of mitochondria in single neurites in an environment of normal LUHMES cell density (Schildknecht et al. 2013, ALTEX 30(4):427-444). Single cell time lapse imaging was performed for a period of 90 s in intervals of 3 s with a Zeiss LSM 780 inverted fluorescence microscope YOKOGAWA CSU-XI spinning disk system using an EVOLVE camera (Carl Zeiss Group, Oberkochen, Germany) equipped with a 5% CO2 /37°C controlled chamber and a 40 x 1.3 NA oil objective. For image analysis, kymographs (graphical representation of spatial position over time) based on the data obtained from single cell time lapse experiments were created using ImageJ Software (NIH, Bethesda, USA). The neurite was manually defined by the segmented line tool. To calculate mitochondrial velocity, diagonal lines were drawn for each moving mitochondrium in the kymograph and analysed by calculating the slope with the macro-plugin Kymo Line ROI, generated by Felix Schöneberger, Bioimaging Center (BIC), University of Konstanz, Germany.
(1 picture or pasted object on this page, not shown here)

Setting [4] is: concentrations as high as 100 µM.

For the molecule `O=P1(NCCNP2(=O)Oc3ccccc3-c3ccccc32)Oc2ccccc2-c2ccccc21` (stereo not drawn) [EDA-DOPO, 6,6′-(ethane-1,2-diylbis(azanediyl))bis(6H-dibenzo[c,e][1,2]oxaphosphinine-6-oxide)], the “influence on neurites / viability” value in series [1] is reported as “no influence”. Moreover, in series [2], the cell migration result is “inhibited neither cell migration”. In addition, in series [2] (setting [4]), the “NCC migration and NCC viability” value is reported as “influenced neither NCC migration nor NCC viability”.
Take `O=P1(OCCOP2(=O)Oc3ccccc3-c3ccccc32)Oc2ccccc2-c2ccccc21` (stereo not drawn) [EG-DOPO, 6,6′-(ethane-1,2-diylbis(oxy))bis(6H-dibenzo[c,e][1,2]oxaphosphinine-6-oxide)]: the “concentration evoking degeneration of neurites” value in series [1] was greater than 10 µM. Moreover, in series [3], the mitochondrial velocity result is “influenced mitochondrial velocity”. In series [2], the cell migration entry is “concentration-dependent declines”, the cell viability entry is “concentration-dependent declines” and the “concentration range in which migration was far more affected than cell viability” value was in the range of 30 to 60 µM.
Consider `Brc1ccc(Oc2cc(Br)c(Br)cc2Br)c(Br)c1` [PBDE-99, reference compound], for which the “concentration evoking degeneration of neurites” value in series [1] is reported as greater than 10 µM. Further, the mitochondrial velocity result in series [3] was “influenced mitochondrial velocity”. Also, in series [2], the cell migration result is “moderately, but significantly, inhibited” and the cell viability entry is on record as “did not reduce cell viability”. Moreover, the “viability of human NCCs” value in series [2] (setting [4]) is given as “did not reduce the viability”.
Take `O=[PH]1Oc2ccccc2-c2ccccc21` (stereo not drawn) [DOPO, 9,10-dihydro-9-oxa-10-phosphaphenanthrene-10-oxide]: the “influence on neurites / viability” value in series [1] is listed as “no influence”. Also, in series [2], the cell migration result is listed as “inhibited neither cell migration”. In addition, the “NCC migration and NCC viability” value in series [2] (setting [4]) is recorded as “influenced neither NCC migration nor NCC viability”.
As for `O=P1(NCCOP2(=O)Oc3ccccc3-c3ccccc32)Oc2ccccc2-c2ccccc21` (stereo not drawn) [ETA-DOPO, 6-(2-((6-oxido-6H-dibenzo[c,e][1,2]oxaphosphinin-6-yl)amino)ethoxy)-6H-dibenzo[c,e][1,2]oxaphosphinine 6-oxide], in series [1], the “concentration evoking degeneration of neurites” value was greater than 10 µM. The mitochondrial velocity result in series [3] is reported as “influenced mitochondrial velocity”. In addition, in series [2], the cell migration result was “concentration-dependent declines”, the cell viability entry is recorded as “concentration-dependent declines” and the “concentration range in which migration was far more affected than cell viability” value was 30 to 60 µM.
